From PubChem BioAssay (NCI)
Where “and” joins values, the source holds several entries; their conditions need not be identical. Equal entries are not always repeated.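 Cells were grown in 96-well plates and exposed to each compound for 48 hours at five concentrations; endpoints were interpolated linearly between bracketing concentrations, or set to the highest concentration if not reached. GI50 = concentration required for 50% inhibition of growth. TGI denotes the concentration required for complete inhibition of growth.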

Tests used:
Assay in all cases: growth of human tumour cells (NCI), 48 h
HOP-92 NSCLC = test system: HOP-92 NSCLC
EKVX NSCLC = test system: EKVX NSCLC
CCRF-CEM leukemia = test system: CCRF-CEM leukemia
ACHN renal = test system: ACHN renal
HCC-2998 colon = test system: HCC-2998 colon
SK-OV-3 ovarian = test system: SK-OV-3 ovarian
UO-31 renal = test system: UO-31 renal
LOX IMVI melanoma = test system: LOX IMVI melanoma
U251 CNS = test system: U251 CNS
TK-10 renal = test system: TK-10 renal

SMILES | GI50 (HOP-92 NSCLC) | TGI (HOP-92 NSCLC) | GI50 (EKVX NSCLC) | TGI (EKVX NSCLC) | GI50 (CCRF-CEM leukemia) | TGI (CCRF-CEM leukemia) | GI50 (ACHN renal) | TGI (ACHN renal) | GI50 (HCC-2998 colon) | TGI (HCC-2998 colon) | GI50 (SK-OV-3 ovarian) | TGI (SK-OV-3 ovarian) | GI50 (UO-31 renal) | TGI (UO-31 renal) | GI50 (LOX IMVI melanoma) | TGI (LOX IMVI melanoma) | GI50 (U251 CNS) | TGI (U251 CNS) | GI50 (TK-10 renal) | TGI (TK-10 renal)
O=C(O)c1cc(Cc2ccc(O)c(C(=O)O)c2)ccc1O (tested in a mixture with another compound) | 1.21 µM | 6.3 µM | 4.82 µM | 18 µM | 2.25 µM | > 100 µM | 11 µM | 24.8 µM | 1.9 µM | 3.73 µM | 11.4 µM | 24.6 µM | 3.99 µM | 19.9 µM | 2.99 µM | 15.7 µM | 9.44 µM | 27.7 µM | 6.17 µM | 20.7 µM
CCc1c(O)c2c(c(O)c1C(C)=O)C(=O)c1c(cc(O)c(C(=O)O)c1C(=O)O)C2=O |  | > 100 µM |  | > 100 µM |  | > 100 µM |  | > 100 µM |  | > 100 µM |  | > 100 µM |  | > 100 µM |  | > 100 µM |  | > 100 µM |  | > 100 µM
NC(Cc1ccnnc1)C(=O)O (centres undefined) |  | > 100 µM |  | > 100 µM |  | > 100 µM |  | > 100 µM |  | > 100 µM |  | > 100 µM |  | > 100 µM |  | > 100 µM |  | > 100 µM |  | > 100 µM
O=C(Nc1cccc(O)c1)c1cccc(NC2=C(Cl)C(=O)N(Cc3ccccc3)C2=O)c1 | 11.7 µM | 29.4 µM | 17.3 µM | 32.1 µM | 0.513 µM | > 100 µM | 17.9 µM | 33.1 µM | 15.8 µM | 29.4 µM | 18.6 µM | 34.6 µM | 6.61 µM | 21.7 µM | 11.1 µM | 23.1 µM | 13.7 µM | 26.6 µM | 15 µM | 29.8 µM
O=C1C(=O)c2ccccc2C(O)=C1CC=C(Cl)Cl | 14.2 µM and 11.8 µM | 50.8 µM and 122 µM and 47.3 µM | 13.4 µM | 57.1 µM and 206 µM | 1.57 µM and 4.69 µM | 52.1 µM and 162 µM and > 100 µM | 3.48 µM and 7.5 µM | 23 µM and 187 µM and > 100 µM | 15.3 µM and 13.8 µM | > 80.9 µM and 133 µM and > 100 µM | 15.1 µM and 16.1 µM | 50.2 µM and 149 µM and > 100 µM | 15.8 µM and 7.26 µM | 81.2 µM and 101 µM and > 100 µM | 2.68 µM | 30.7 µM and 51.9 µM and > 100 µM | 2.17 µM and 2.01 µM | > 85.8 µM and 138 µM and > 100 µM | 25.7 µM and 20.7 µM | 98.6 µM and 195 µM and > 100 µM
Nc1ccc2ccc(NS(=O)(=O)N3CCCCC3)cc2c1 | 0.532 µM | 73.1 µM | 2.05 µM | > 100 µM | 0.46 µM | > 100 µM | 3.64 µM | > 100 µM | 0.707 µM | > 24.8 µM | 0.498 µM |  | 1.7 µM | > 100 µM | 1.03 µM | > 100 µM | 0.392 µM | > 42 µM | 3.15 µM | > 100 µM
C(=C\c1nccc2c1[nH]c1ccccc12)/c1ccccc1 | 2.19 µM | 19.8 µM | 1.72 µM | 59.6 µM | 2.1 µM | 6.03 µM | 4.82 µM | 20.8 µM | 2.96 µM | 9.43 µM | 2.97 µM | 13.4 µM | 1.58 µM | 17.4 µM | 2.99 µM | 12.2 µM | 3.26 µM | 13.7 µM | 6.58 µM | 25.5 µM
